Experimental data published in patent US20240185945A1, “SYSTEMS AND METHODS FOR MODELING AND DISPLAYING SWEETENER SYNERGY” (WM. WRIGLEY JR. COMPANY, priority 2022, published 2024).

Target: T1, sweet taste receptor (Homo sapiens, UniProt Q7RTX0+Q8TE23)
T1 sequence (Q8TE23 20-839): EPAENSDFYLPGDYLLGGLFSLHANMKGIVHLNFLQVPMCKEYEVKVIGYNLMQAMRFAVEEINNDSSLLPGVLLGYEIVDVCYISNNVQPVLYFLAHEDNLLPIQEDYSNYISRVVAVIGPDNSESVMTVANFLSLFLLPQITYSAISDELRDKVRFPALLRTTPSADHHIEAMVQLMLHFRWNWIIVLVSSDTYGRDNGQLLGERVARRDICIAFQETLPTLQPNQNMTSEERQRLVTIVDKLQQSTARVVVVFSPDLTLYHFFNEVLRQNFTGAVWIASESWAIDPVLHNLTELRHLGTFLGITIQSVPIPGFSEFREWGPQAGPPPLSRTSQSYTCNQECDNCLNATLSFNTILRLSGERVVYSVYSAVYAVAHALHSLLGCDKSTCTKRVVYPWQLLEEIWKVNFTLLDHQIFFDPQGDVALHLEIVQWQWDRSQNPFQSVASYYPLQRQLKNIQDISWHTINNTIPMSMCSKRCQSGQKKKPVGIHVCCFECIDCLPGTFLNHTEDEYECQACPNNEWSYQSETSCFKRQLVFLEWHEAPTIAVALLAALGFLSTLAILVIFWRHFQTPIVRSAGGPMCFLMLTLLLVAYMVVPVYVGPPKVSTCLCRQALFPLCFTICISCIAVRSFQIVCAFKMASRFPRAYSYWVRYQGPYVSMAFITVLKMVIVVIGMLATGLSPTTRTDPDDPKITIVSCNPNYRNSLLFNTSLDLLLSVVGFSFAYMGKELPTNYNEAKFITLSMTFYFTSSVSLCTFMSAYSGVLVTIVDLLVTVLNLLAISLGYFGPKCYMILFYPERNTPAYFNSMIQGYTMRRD
T1 sequence (Q7RTX0 21-852): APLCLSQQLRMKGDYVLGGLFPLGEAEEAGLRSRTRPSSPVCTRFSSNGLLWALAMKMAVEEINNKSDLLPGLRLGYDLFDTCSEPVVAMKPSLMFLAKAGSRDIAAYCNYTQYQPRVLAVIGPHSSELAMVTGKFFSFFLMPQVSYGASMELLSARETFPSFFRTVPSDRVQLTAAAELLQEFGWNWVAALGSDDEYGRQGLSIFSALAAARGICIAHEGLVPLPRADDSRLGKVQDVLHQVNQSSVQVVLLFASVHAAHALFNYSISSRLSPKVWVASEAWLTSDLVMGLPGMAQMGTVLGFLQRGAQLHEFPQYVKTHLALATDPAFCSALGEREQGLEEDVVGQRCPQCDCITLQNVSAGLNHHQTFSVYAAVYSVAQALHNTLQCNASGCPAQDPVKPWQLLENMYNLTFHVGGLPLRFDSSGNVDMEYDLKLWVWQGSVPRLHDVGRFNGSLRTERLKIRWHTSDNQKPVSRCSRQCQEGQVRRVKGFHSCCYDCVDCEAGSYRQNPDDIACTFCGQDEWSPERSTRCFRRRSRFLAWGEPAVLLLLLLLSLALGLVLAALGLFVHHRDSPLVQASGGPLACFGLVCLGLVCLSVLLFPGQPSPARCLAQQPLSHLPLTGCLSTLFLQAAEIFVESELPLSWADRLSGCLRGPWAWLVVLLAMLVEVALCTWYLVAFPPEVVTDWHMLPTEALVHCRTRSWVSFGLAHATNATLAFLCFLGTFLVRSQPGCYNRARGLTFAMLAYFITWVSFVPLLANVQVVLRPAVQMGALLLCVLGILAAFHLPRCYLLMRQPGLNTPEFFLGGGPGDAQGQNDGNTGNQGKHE
Test: Synergy effects (sweet taste receptor signal increase) in binary compound mixtures
Format: cell-based
Conditions: calculated as L(X&Y)/(L(X)+L(Y)); for Synergy effect observed in binary compound mixture with sucralose: partner sucralose; for Synergy effect observed in binary compound mixture with sucrose: partner sucrose; for Synergy effect observed in binary compound mixture with Aspartame: partner Aspartame; for Synergy effect observed in binary compound mixture with Thaumatin: partner Thaumatin; for Synergy effect observed in binary compound mixture with NHDC: partner NHDC; for Synergy effect observed in binary compound mixture with Reb A: partner Reb A
Procedure: The present example describes sweet taste receptor signal increases calculated for the following sweeteners: aspartame, sucrose, sucralose, rebaudioside A, rebaudioside D, thaumatin, NHDC, and S819 are present in various combinations in a binary mixture as shown in Table 1.
Synergy between binary mixtures of the sweeteners was calculated as following: L(X&Y)/(L(X)+L(Y)).

Synergy effect observed in binary compound mixture with Aspartame	Synergy effect observed in binary compound mixture with Thaumatin	Synergy effect observed in binary compound mixture with Reb A	Compound	Synergy effect observed in binary compound mixture with sucralose	Synergy effect observed in binary compound mixture with sucrose	Synergy effect observed in binary compound mixture with NHDC
			C=C1C[C@@]23CC[C@H]4[C@@](C)(CCC[C@@]4(C)C(=O)O[C@@H]4O[C@H](CO)[C@@H](O)[C@H](O)[C@H]4O[C@@H]4O[C@H](CO)[C@@H](O)[C@H](O)[C@H]4O)[C@@H]2CC[C@]1(O[C@@H]1O[C@H](CO)[C@@H](O)[C@H](O[C@@H]2O[C@H](CO)[C@@H](O)[C@H](O)[C@H]2O)[C@H]1O[C@@H]1O[C@H](CO)[C@@H](O)[C@H](O)[C@H]1O)C3 [Reb D, Rebaudioside D]	0.3	0.25	
0.5	0.06		COc1ccc(CCC(=O)c2c(O)cc(O[C@@H]3O[C@H](CO)[C@@H](O)[C@H](O)[C@H]3O[C@@H]3O[C@@H](C)[C@H](O)[C@@H](O)[C@H]3O)cc2O)cc1O [NHDC]			
			C=C1C[C@@]23CC[C@H]4[C@@](C)(CCC[C@@]4(C)C(=O)O[C@@H]4O[C@H](CO)[C@@H](O)[C@H](O)[C@H]4O)[C@@H]2CC[C@]1(O[C@@H]1O[C@H](CO)[C@@H](O)[C@H](O[C@@H]2O[C@H](CO)[C@@H](O)[C@H](O)[C@H]2O)[C@H]1O[C@@H]1O[C@H](CO)[C@@H](O)[C@H](O)[C@H]1O)C3 [Reb A, Rebaudioside A]	0.3	0.5	0.25
0.5		0.4	Thaumatin			
	0.4	0.25	CC(C)Oc1ccc(NC(=S)NCc2ccc[nH]2)cc1 [S819, 1-((1H-pyrrol-2-yl)methyl)-3-(4-isopropoxyphenyl)thiourea]			0.4
